Series [1] in a line: Dissolution rate of the salt compared with free base and other salts. Particulars: compared to the free base form of the Agent and other salts. The format is physicochemical.
Series [2] in a line: Bioavailability of the salt compared with free base and other salts. The conditions noted are these: compared to the free base form of the Agent and other salts. The format is in vivo.
Series [3] in a line: Biopharmaceutical Classification System (BCS) classification. It counts as physicochemical. The conditions noted are these: indicates low solubility/dissolution rate and low permeability.
The nature of series [4]: Bioavailability of the free base form from a conventional tablet formulation. The conditions noted are these: dog, in vivo, oral, in dogs.

As for `Cn1cnc2c(F)c(Nc3ccc(Br)cc3Cl)c(C(=O)NOCCO)cc21` [Agent, 6-(4-bromo-2-chloro-phenylamino)-7-fluoro-3-methyl-3H-benzoimidazole-5-carboxylic acid (2-hydroxy-ethoxy)-amide], in series [1], the dissolution rate result is given as “particularly high”. In addition, the bioavailability result in series [2] was “particularly high”.

As for `Cn1cnc2c(F)c(Nc3ccc(Br)cc3Cl)c(C(=O)NOCCO)cc21` [free-base form of the Agent, 6-(4-bromo-2-chloro-phenylamino)-7-fluoro-3-methyl-3H-benzoimidazole-5-carboxylic acid (2-hydroxy-ethoxy)-amide], the BCS classification entry in series [3] is listed as “BCS Class 4”. Moreover, the bioavailability in series [4] is around 18%.

(Values after patent US12318367B2, “Pharmaceutical composition” (ASTRAZENECA AB, priority 2008, dated 2025).)
